From PubChem BioAssay AID179 (DTP/NCI, 2004)
Where “and” joins values, the source holds several entries; their conditions need not be identical. Equal entries are not always repeated. Calls of active or inactive are those of the source.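 Rule for the calls: active = compounds giving half or more protection of infected cells from virus-caused growth loss, again on retest; inactive = the rest.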

Tested on: CEM cells HIV-1 protection, formazan growth assay
Test: NCI AIDS Antiviral Assay
Conditions: for IC50: measured here: growth of uninfected CEM cells
Procedure, shortened: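 Screen of anti-HIV-1 activity in human CEM cells using a formazan-based growth measurement at five drug concentrations. Hits with 50% or greater protection were repeated, and confirmation required reproducible complete protection.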

Compound	outcome	EC50 [µM]	IC50
O=C1C2C3C=C4c5ccccc5N(c5ccccc5)C4(C2C(=O)N1c1ccccc1)C1C(=O)N(c2ccccc2)C(=O)C31 (stereo unspecified)	inactive	–	–
C/C=C/C=Nc1c(C#N)c2n(c1C(=O)Nc1ccc(S(N)(=O)=O)cc1)CCC2	–	> 200	11 µM
O=C1CCC2(c3ccccc3)Nc3cc(Cl)ccc3N12 (stereo unspecified)	inactive	–	–
Cc1ccsc1C(=S)Nc1ccc(Cl)c(/C=N/OC(C)C)c1	–	0.0575	10.7 µM
CC1=CC(=O)N2CCN=C2S1	–	> 200	> 200 µM
Cc1nc2ccc(N=NN(C)C)cc2[nH]1	–	> 200	> 200 µM
COc1cc2cccc(OC)c(=O)c2c(O)c1OC	inactive	–	–
CNNCc1ccc(C(=O)NC(C)C)cc1	–	> 977	229 µM
COc1ccc2c(c1)C1CCN(C)CC1OC2=O (stereo unspecified)	inactive	–	–
O=C(N/C(=C/c1cccc([N+](=O)[O-])c1)c1nc2ccc(Cl)cc2[nH]1)c1ccccc1	inactive	–	–
Cc1c2cc(Cl)ccc2n2c(=O)c3ccccc3[nH]c(=O)c12	–	> 15.8	> 15.8 µM
CCOC(=O)C1(C(=O)OCC)CC1(C(=O)OCC)C(=O)OCC	inactive	–	–
CC(=O)c1c2c(cc3c1CC1(C3)Cc3cc4c(c(C(=O)O)c3C1)CCCC4)CCCC2 (stereo unspecified) (tested in a mixture with another compound)	–	> 200	38.9 µM
CCOP1(=O)OCC(C(C)(C)C)CO1 (stereo unspecified)	–	> 200	> 200 µM
O=C(O)c1cscc1Cc1ccccc1	–	> 200	> 200 µM
COc1cc(SSc2cc(OC)c(OC)cc2C(=O)N2CSC[C@H]2C(=O)O)c(C(=O)N2CSC[C@@H]2C(=O)O)cc1OC	–	> 200	> 200 µM

Compound	outcome	EC50 [µM]	IC50
COc1c(C(=O)O)oc2c(OC)cccc12	inactive	–	–
O=CN(CCNc1ccccc1)c1ccccc1	–	> 200	> 200 µM
CCOC(=O)c1c[nH]c2cc(OCC3CC3)c(OCC3CC3)cc2c1=O	–	> 200	> 200 µM
c1ccc2c3nnc(c2c1)SCCSCCCSCCS3	–	> 200	> 200 µM
CC(C)(C)[Si](C)(C)OCC1=C(CC#N)C(O[Si](C)(C)C(C)(C)C)C(n2ccc(=O)[nH]c2=O)O1 (stereo unspecified)	–	> 200	9.33 µM
CNC(=O)CN(C)C(=O)CCC(=O)N(C)C	–	> 200	> 200 µM
COC(=O)C(Cc1ccccc1)NC(=O)C(CCC(=O)OCc1ccccc1)NC(=O)OC(C)(C)C (stereo unspecified)	–	> 200	28.8 µM
COc1cc(-c2[o+]c3cc(O)cc(OC4OC(CO)C(O)C(O)C4O)c3cc2OC2OC(CO)C(O)C(O)C2O)cc(OC)c1O (stereo unspecified)	–	> 67.6	40.7 µM
CCOC(=O)/C(=C\c1ccnc2ccccc12)P(=O)(OCC)OCC	–	> 200	3.31 µM
CN(C)CC(O)CNC(=O)Nc1ccccc1 (stereo unspecified)	–	> 200	> 200 µM
O=c1oc2ccccc2c(O)c1C(c1cccc(C(c2c(O)c3ccccc3oc2=O)c2c(O)c3ccccc3oc2=O)c1)c1c(O)c2ccccc2oc1=O	–	42.7	> 100 µM
COc1ccc(-c2c(C#N)c(S)n(C3OC(CO)C(O)C(O)C3O)c(=O)c2C#N)cc1 (stereo unspecified)	–	> 200	195 µM and > 200 µM
O=c1nc(Oc2c(F)c(F)c(F)c(F)c2F)ccn1C1OC(CO)C(O)C1O (stereo unspecified)	–	> 200	120 µM
CCCNC(=O)c1cc2ccccc2cc1C(=O)OC	–	> 5.37	> 5.37 µM
OCC(O)C(O)C(O)C(O)c1nn[nH]n1 (stereo unspecified)	inactive	–	–
CCOC(=O)c1nc2ccc(C(F)(F)F)cc2nc1Oc1ccc(OC)cc1	–	> 200	> 200 µM
